Key:
[1] = tested on: skin injury following radiotherapy in patients with head and neck cancer; settings: mucoadhesive buccal tablet 50 μg once daily, from 1 to 3 days before radiotherapy until its end, up to 8 weeks; 50 to 70 Gray plus platinum-based chemotherapy; placebo group 38.7%
Procedure: These patients received, within 15 weeks after curative surgery, a cumulative radiation dose of radiation ranging from 50 to 70 Gray in oral cavity, based on a daily dosing between 1.8 and 2.2 Gy, combined with platinum-based chemotherapy, based on a weekly or tri-weekly cycle. Clonidine was administered in the form of a mucoadhesive tablet that was applied into the mouth, on the upper gum, for about 30 seconds, after which it remained in place for several hours. The treatment with clonidine hydrochloride started from 1 to 3 days before radiotherapy until the end of radiotherapy, for up to 8 weeks. Patients were evaluated twice a week during the radiotherapy period, then one month after stop of radiotherapy.

radiation skin injury = settings: Journal of Clinical Oncology, Vol. 29, No 20, 2011; even worsened skin adverse reactions; cited from earlier work

Molecule | patients showing skin injury after treatment [1] | effect on radiation skin injury compared to a placebo (radiation skin injury)
Cl.Clc1cccc(Cl)c1NC1=NCCN1 [clonidine hydrochloride] | 25.5% | 
palifermin |  | not to improve radiation skin injury compared to a placebo
